Results from ChEMBL document CHEMBL3774317, “Design and synthesis of novel tamoxifen analogues that avoid CYP2D6 metabolism” (Eur J Med Chem, 2016).

What was measured:
[1] = Cytotoxicity against human UACC62 cells assessed as cell growth at 10^-5 M after 48 hrs by SRB assay; assay type: functional; details: UACC-62, 48 h, read-out: Activity
[2] = Cytotoxicity against human IGROV1 cells assessed as cell growth at 10^-6 M after 48 hrs by SRB assay; assay type: functional; details: IGROV-1, 48 h, read-out: Activity
[3] = Cytotoxicity against human HL-60(TB) cells assessed as cell growth at 10^-4 M after 48 hrs by SRB assay; assay type: functional; details: HL-60, 48 h, read-out: Activity
[4] = test system: SK-MEL-28; experiment: Cytotoxicity against human SK-MEL-28 cells assessed as cell growth at 10^-4 M after 48 hrs by SRB assay; assay type: functional; details: SK-MEL-28, 48 h, read-out: Activity
[5] = test system: SR; experiment: Cytotoxicity against human SR cells assessed as cell growth at 10^-5 M after 48 hrs by SRB assay; assay type: functional; details: read-out: Activity
[6] = Cytotoxicity against human SKOV3 cells assessed as cell growth at 10^-4 M after 48 hrs by SRB assay; assay type: functional; details: SK-OV-3, 48 h, read-out: Activity
[7] = Cytotoxicity against human RXF393 cells assessed as cell growth at 10^-5 M after 48 hrs by SRB assay; assay type: functional; details: RXF 393, 48 h, read-out: Activity
[8] = test system: SN12C; experiment: Cytotoxicity against human SN12C cells assessed as cell growth at 10^-6 M after 48 hrs by SRB assay; assay type: functional; details: read-out: Activity
[9] = test system: CCRF-CEM; experiment: Cytotoxicity against human CCRF-CEM cells assessed as cell growth at 10^-5 M after 48 hrs by SRB assay; assay type: functional; details: read-out: Activity
[10] = test system: ACHN; experiment: Cytotoxicity against human ACHN cells assessed as cell growth at 10^-7 M after 48 hrs by SRB assay; assay type: functional; details: read-out: Activity
[11] = Cytotoxicity against human SKOV3 cells assessed as cell growth at 10^-7 M after 48 hrs by SRB assay; assay type: functional; details: SK-OV-3, 48 h, read-out: Activity
[12] = Cytotoxicity against human BT549 cells assessed as cell growth at 10^-8 M after 48 hrs by SRB assay; assay type: functional; details: BT-549, 48 h, read-out: Activity
[13] = Cytotoxicity against human HOP92 cells assessed as cell growth at 10^-8 M after 48 hrs by SRB assay; assay type: functional; details: HOP-92, 48 h, read-out: Activity
[14] = Cytotoxicity against human OVCAR5 cells assessed as cell growth at 10^-7 M after 48 hrs by SRB assay; assay type: functional; details: OVCAR-5, 48 h, read-out: Activity
[15] = test system: A549; experiment: Cytotoxicity against human A549 cells assessed as cell growth at 10^-5 M after 48 hrs by SRB assay; assay type: functional; details: A549, 48 h, read-out: Activity
[16] = Cytotoxicity against human UACC257 cells assessed as cell growth at 10^-7 M after 48 hrs by SRB assay; assay type: functional; details: UACC-257, 48 h, read-out: Activity
[17] = test system: T47D; experiment: Cytotoxicity against human T47D cells assessed as cell growth at 10^-6 M after 48 hrs by SRB assay; assay type: functional; details: read-out: Activity
[18] = test system: U-251; experiment: Cytotoxicity against human U251 cells assessed as cell growth at 10^-7 M after 48 hrs by SRB assay; assay type: functional; details: U-251, 48 h, read-out: Activity
[19] = Cytotoxicity against human UACC257 cells assessed as cell growth at 10^-4 M after 48 hrs by SRB assay; assay type: functional; details: UACC-257, 48 h, read-out: Activity
[20] = Cytotoxicity against human SF539 cells assessed as cell growth at 10^-8 M after 48 hrs by SRB assay; assay type: functional; details: SF-539, 48 h, read-out: Activity
[21] = test system: SR; experiment: Cytotoxicity against human SR cells assessed as cell growth at 50 uM after 48 hrs by SRB assay; assay type: functional; details: read-out: Activity
[22] = Cytotoxicity against human Hs 578T cells assessed as cell growth at 50 nM after 48 hrs by SRB assay; assay type: functional; details: read-out: Activity
[23] = test system: K562; experiment: Cytotoxicity against human K562 cells assessed as cell growth at 5 uM after 48 hrs by SRB assay; assay type: functional; details: K562, 48 h, read-out: Activity
[24] = Cytotoxicity against human UO31 cells assessed as cell growth at 0.5 uM after 48 hrs by SRB assay; assay type: functional; details: UO-31, 48 h, read-out: Activity
[25] = Cytotoxicity against human HCT116 cells assessed as cell growth at 5 nM after 48 hrs by SRB assay; assay type: functional; details: HCT-116, 48 h, read-out: Activity
[26] = Cytotoxicity against human OVCAR3 cells assessed as cell growth at 50 nM after 48 hrs by SRB assay; assay type: functional; details: OVCAR-3, 48 h, read-out: Activity
[27] = test system: M14; experiment: Cytotoxicity against human M14 cells assessed as cell growth at 50 uM after 48 hrs by SRB assay; assay type: functional; details: M14, 48 h, read-out: Activity
[28] = test system: M14; experiment: Cytotoxicity against human M14 cells assessed as cell growth at 5 uM after 48 hrs by SRB assay; assay type: functional; details: M14, 48 h, read-out: Activity
[29] = Cytotoxicity against human HL-60(TB) cells assessed as cell growth at 0.5 uM after 48 hrs by SRB assay; assay type: functional; details: HL-60, 48 h, read-out: Activity
[30] = test system: A498; experiment: Cytotoxicity against human A498 cells assessed as cell growth at 0.5 uM after 48 hrs by SRB assay; assay type: functional; details: A498, 48 h, read-out: Activity
[31] = Cytotoxicity against human SW620 cells assessed as cell growth at 5 uM after 48 hrs by SRB assay; assay type: functional; details: SW-620, 48 h, read-out: Activity
[32] = test system: SK-MEL-5; experiment: Cytotoxicity against human SK-MEL-5 cells assessed as cell growth at 5 nM after 48 hrs by SRB assay; assay type: functional; details: SK-MEL-5, 48 h, read-out: Activity
[33] = test system: SK-MEL-2; experiment: Cytotoxicity against human SK-MEL-2 cells assessed as cell growth at 50 uM after 48 hrs by SRB assay; assay type: functional; details: SK-MEL-2, 48 h, read-out: Activity
[34] = Cytotoxicity against human MOLT4 cells assessed as cell growth at 50 nM after 48 hrs by SRB assay; assay type: functional; details: MOLT-4, 48 h, read-out: Activity
[35] = Cytotoxicity against human SKOV3 cells assessed as cell growth at 5 uM after 48 hrs by SRB assay; assay type: functional; details: SK-OV-3, 48 h, read-out: Activity
[36] = Cytotoxicity against human DU145 cells assessed as cell growth at 5 nM after 48 hrs by SRB assay; assay type: functional; details: DU-145, 48 h, read-out: Activity
[37] = Cytotoxicity against human HCC2998 cells assessed as cell growth at 50 uM after 48 hrs by SRB assay; assay type: functional; details: HCC 2998, 48 h, read-out: Activity
[38] = test system: SR; experiment: Cytotoxicity against human SR cells assessed as cell growth at 0.5 uM after 48 hrs by SRB assay; assay type: functional; details: read-out: Activity
[39] = Metabolic stability in human liver microsomes assessed as remaining parent compound level at 10 uM after 3 hrs in absence of NAPDH by LC/MS analysis; assay type: ADME; details: read-out: Drug metabolism
[40] = test system: NCI-H522; experiment: Cytotoxicity against human NCI-H522 cells assessed as cell growth at 5 nM after 48 hrs by SRB assay; assay type: functional; details: NCI-H522, 48 h, read-out: Activity
[41] = test system: U-251; experiment: Cytotoxicity against human U251 cells assessed as cell growth at 0.5 uM after 48 hrs by SRB assay; assay type: functional; details: U-251, 48 h, read-out: Activity

SMILES: C/C(=C(/c1ccc(O)cc1)c1ccc(OCCN2CCCC2)cc1)c1ccccc1
- growth at 10 µM [1]: -51%
- growth at 1 µM [2]: 95%
- growth at 100 µM [3]: -69%
- growth at 100 µM [4]: -93%
- growth at 10 µM [5]: -25%
- growth at 100 µM [6]: -98%
- growth at 10 µM [7]: -37%
- growth at 1 µM [8]: 101%
- growth at 10 µM [9]: -1%
- growth at 0.1 µM [10]: 97%
- growth at 0.1 µM [11]: 93%
- growth at 0.01 µM [12]: 96%
- growth at 0.01 µM [13]: 98%
- growth at 0.1 µM [14]: 90%
- growth at 10 µM [15]: 4%
- growth at 0.1 µM [16]: 102%
- growth at 1 µM [17]: 48%
- growth at 0.1 µM [18]: 100%
- growth at 100 µM [19]: -99%
- growth at 0.01 µM [20]: 89%

SMILES: CCCCCCCCCC(=O)Oc1ccc(/C(=C(/C)c2ccccc2)c2ccc(OCCN3CCCC3)cc2)cc1
- growth at 50 µM [21]: -66%
- growth at 0.05 µM [22]: 92%
- growth at 5 µM [23]: 74%
- growth at 0.5 µM [24]: 61%
- growth at 0.005 µM [25]: 98%
- growth at 0.05 µM [26]: 104%
- growth at 50 µM [27]: -81%
- growth at 5 µM [28]: 87%
- growth at 0.5 µM [29]: 75%
- growth at 0.5 µM [30]: 49%
- growth at 5 µM [31]: 95%
- growth at 0.005 µM [32]: 100%
- growth at 50 µM [33]: -79%
- growth at 0.05 µM [34]: 91%
- growth at 5 µM [35]: 78%
- growth at 0.005 µM [36]: 102%
- growth at 50 µM [37]: -77%
- growth at 0.5 µM [38]: 60%
- remaining at 3 h, 10 µM [39]: 54%
- growth at 0.005 µM [40]: 101%
- growth at 0.5 µM [41]: 67%
